Measurements published in patent US20250221435A1, “Food Protein-Derived Peptides as Bitter Taste Blockers” (University of Manitoba, priority 2018, published 2025).
Where “and” joins values, the source holds several entries; their conditions need not be identical. Equal entries are not always repeated. Entries after “also recorded” stand apart in the source; their conditions may differ. Where two headings read alike, the source gives them in different places.

How the values were obtained:
T2R4 [1] = molecular target: T1, T2R4 (Homo sapiens, UniProt Q9NYW5); assay: Calcium mobilization in T2R4-expressing HEK 293T cell system; format: cell-based; conditions: for blocking of quinine-dependent calcium release: 1 mM quinine plus 5 mg/mL fraction or 1 mM synthesized peptide
T1 construct: expressed in transfected cells
T1 sequence (Q9NYW5 1-299): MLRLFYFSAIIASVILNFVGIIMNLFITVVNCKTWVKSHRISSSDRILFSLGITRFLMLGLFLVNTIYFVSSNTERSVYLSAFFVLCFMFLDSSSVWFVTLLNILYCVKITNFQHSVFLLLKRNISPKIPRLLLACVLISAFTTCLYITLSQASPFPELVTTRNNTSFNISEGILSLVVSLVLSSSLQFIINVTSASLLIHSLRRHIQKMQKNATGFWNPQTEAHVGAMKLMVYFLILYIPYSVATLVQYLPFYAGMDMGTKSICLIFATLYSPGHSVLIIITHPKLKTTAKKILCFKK
Procedure: Determination of cellular calcium mobilization. Determination of the potential bitter taste-activating or blocking activity of BPH was carried out by measuring intracellular Ca^2+ mobilization using Fluo-4 NW calcium assay kit as previously described.^3 Stable transfected HEK293 cells expressing T2R4 and G-alpha 16/44 or HEK293T cells expressing only G-alpha 16/44 were used as experimental and negative control group, respectively. Around 1×10^5 cells/well plated in the 96-well BD-falcon biolux plate and then incubated at 37° C. in a CO2 incubator for 16 h. After incubation, the culture medium was substituted (for 40 min at 37° C. in the CO2 incubator followed by 30 min incubation at room temperature) with Fluo-4 NW dye solution, which contained lyophilized dye in 10 mL of assay buffer (1× Hanks' balanced salt solution, 20 mM HEPES) and 100 μL 2.5 mM probenecid added to prevent dye leakage from cytosol. Calcium mobilization was measured in terms of relative fluorescence units (RFUs) using a Flexstation-3 microplate reader (Molecular Devices, CA, USA) at 525 nm, following 494 nm excitation. […] The basal intracellular calcium levels were measured for the first 20 s followed by addition of appropriate concentration of ligands for another 120 s. To get the absolute RFUs, the basal RFU before adding the ligand, which was labeled minimum value (Min) was deducted from the maximum RFU (Max) obtained after stimulating with the ligand (absolute RFUs=Max−Min). […] Data were collected from two independent experiments, each done in triplicate.

T2R14 = molecular target: T2, T2R14 (Homo sapiens, UniProt Q9NYV8); assay: Peptides and agonist competition calcium mobilization assays on T2R14; format: cell-based; conditions: for IC50: IC50 for T2R14 activated by diphenhydramine, diphenhydramine 0.5 mM, peptide 0.015 mM-1 mM, HEK293T cells stably expressing T2R14; for blocking of diphenhydramine-dependent T2R14 activation: competition calcium mobilization assay
T2 construct: expressed in transfected cells
T2 sequence (Q9NYV8 1-317): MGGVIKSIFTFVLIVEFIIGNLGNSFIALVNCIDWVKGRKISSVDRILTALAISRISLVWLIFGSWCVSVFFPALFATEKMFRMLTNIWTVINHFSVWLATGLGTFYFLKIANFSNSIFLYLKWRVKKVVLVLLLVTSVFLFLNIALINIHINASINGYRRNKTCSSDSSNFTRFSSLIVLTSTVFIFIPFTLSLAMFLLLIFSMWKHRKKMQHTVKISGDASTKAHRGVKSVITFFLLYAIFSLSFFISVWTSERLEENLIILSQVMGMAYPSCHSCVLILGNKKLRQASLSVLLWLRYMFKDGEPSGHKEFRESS
Procedure: FIG. 9. Peptides and agonist competition calcium mobilization assays on T2R14. HEK293T cells stably expressing T2R14 were treated with the agonist diphenhydramine (0.5 mM) and with increasing concentrations of Peptide 4 (ETSARHL) and Peptide 5 (AGDDAPRAVF) ranging from 0.015 mM-1 mM. Changes in intracellular calcium were measured (ΔRFUs), and IC50 values were calculated using GraphPad Prism 4.0. […] Data were collected from a minimum of two independent experiments carried out in triplicate.
To generalize the applicability of these peptides in blocking other T2Rs, we choose T2R14 as our next target.
Determination of cellular calcium mobilization. Determination of the potential bitter taste-activating or blocking activity of BPH was carried out by measuring intracellular Ca^2+ mobilization using Fluo-4 NW calcium assay kit as previously described.^3 Stable transfected HEK293 cells expressing T2R4 and G-alpha 16/44 or HEK293T cells expressing only G-alpha 16/44 were used as experimental and negative control group, respectively. Around 1×10^5 cells/well plated in the 96-well BD-falcon biolux plate and then incubated at 37° C. in a CO2 incubator for 16 h. After incubation, the culture medium was substituted (for 40 min at 37° C. in the CO2 incubator followed by 30 min incubation at room temperature) with Fluo-4 NW dye solution, which contained lyophilized dye in 10 mL of assay buffer (1× Hanks' balanced salt solution, 20 mM HEPES) and 100 μL 2.5 mM probenecid added to prevent dye leakage from cytosol. Calcium mobilization was measured in terms of relative fluorescence units (RFUs) using a Flexstation-3 microplate reader (Molecular Devices, CA, USA) at 525 nm, following 494 nm excitation. Based on the e-tongue data, BPH at 5 mg/mL, BCML at 59 nM and agonist quinine at 1 mM were used individually or in combination with peptides to determine activation of T2R4. BPH or BCML was then mixed with quinine (1 mM final concentration) to obtain 5 mg/mL or 59 nM, respectively and used to determine inactivation of T2R4. The basal intracellular calcium levels were measured for the first 20 s followed by addition of appropriate concentration of ligands for another 120 s. To get the absolute RFUs, the basal RFU before adding the ligand, which was labeled minimum value (Min) was deducted from the maximum RFU (Max) obtained after stimulating with the ligand (absolute RFUs=Max−Min). Next, the signals from the negative control group cells were deducted from the observed signal of experimental group cells to give ΔRFUs. Data were collected from two independent experiments, each done in triplicate. PRISM software version 4.03 (GraphPad Software, San Diego) was used for data analysis.

[2] = 10 mM quinine solution; cited from earlier work
[3] = Estimation of bitter scores by electronic-tongue (e-tongue); conditions: 1 mM quinine mixed with 5 mg/mL hydrolysate or 59 nM BCML
Procedure: Estimation of bitter scores by electronic-tongue (e-tongue). Each BPH was dissolved in distilled water to give 0.5, 1.0, 2.5, 5.0, and 10.0 mg/mL concentrations followed by filtration first through a 0.45 μm filter disc and then a 0.2 μm filter. Bitter scores of filtered BPH solutions (20 mL) were evaluated using the Astree II E-tongue system (Alpha M.O.S., Toulouse, France). This system is a completely automated taste analyzer equipped with seven sensors, BD, EB, JA, JG, KA, OA, and JE, based on the ChemFET technology (Chemical modified Field Effect Transistor) to analyze liquid samples. Firstly, 0.01 M HCl was used to condition and calibrate sensors and the reference electrode repeatedly until stable signals were obtained for all seven sensors with minimal or no noise and drift. […] Thereafter, the PLS bitterness standard model was constructed using several bitter taste compounds with known bitter taste scores determined from human panelists, including 0.24 mM and 2.36 mM caffeine, 0.03 mM and 0.12 mM quinine, 0.44 mM and 0.88 mM prednisolone, as well as 3.31 mM and 19.85 mM paracetamol. […] The 5 mg/ml sample was determined as the maximum strength useful to evaluate BPH bitterness intensity and this concentration was subsequently used to obtain bitter scores. […]

T2R4 [4] = molecular target: T1, T2R4; conditions: known T2R4 bitter taste blocker, positive control; read-out: IC50 for quinine of known T2R4 bitter taste blocker; cited from earlier work

## AAMY: peptide AAMY identified from CHYMOTRYPSIN hydrolysate fraction CH-F4-5, chemically synthesized (synthesized bitter taste blocker)
T2R4 [1]; T2R4-expressing HEK 293T cells
  blocking of quinine-dependent calcium release: less calcium mobilization; also recorded: suppressed quinine-dependent calcium release

## C=C[C@H]1C[N@@]2CC[C@H]1C[C@H]2[C@H](O)c1ccnc2ccc(OC)cc12 [Quinine, reference compound]
T2R4 [1]; T2R4-expressing HEK 293T cells, hydrolysates 5 mg/mL, quinine 1 mM, peptides 1 mM
  calcium mobilization (ΔRFU), sample alone: highest activity

## CC(C)C[C@H](NC(=O)[C@H](Cc1c[nH]cn1)NC(=O)[C@H](CCCNC(=N)N)NC(=O)[C@H](C)NC(=O)[C@H](CO)NC(=O)[C@@H](NC(=O)[C@@H](N)CCC(=O)O)[C@@H](C)O)C(=O)O [ETSARHL]
T2R4 [1]; T2R4-expressing HEK 293T cells
  blocking of quinine-dependent calcium release: less calcium mobilization; also recorded: suppressed quinine-dependent calcium release; also recorded: most effective
T2R14
  IC50: ~100 µM and 121 µM
  blocking of diphenhydramine-dependent T2R14 activation: effective in blocking

## Nc1ncnc2c1ncn2[C@H]1C[C@H](O)[C@@H](COP(=O)(O)OP(=O)(O)OP(=O)(O)O)O1 [dATP, 2-deoxyadenosine triphosphate]
[2]
  reduction in bitterness of quinine solution: 60%

## cytosine monophosphate [CMP]
[2]
  reduction in bitterness of quinine solution: 40%

## AAYM: peptide AAYM identified from CHYMOTRYPSIN hydrolysate fraction CH-F4-5, chemically synthesized (synthesized bitter taste blocker)
T2R4 [1]; T2R4-expressing HEK 293T cells
  blocking of quinine-dependent calcium release: suppressed quinine-dependent calcium release

## CC(C)[C@H](NC(=O)[C@H](C)NC(=O)[C@H](CCCNC(=N)N)NC(=O)[C@@H]1CCCN1C(=O)[C@H](C)NC(=O)[C@H](CC(=O)O)NC(=O)[C@H](CC(=O)O)NC(=O)CNC(=O)[C@H](C)N)C(=O)N[C@@H](Cc1ccccc1)C(=O)O [AGDDAPRAVF]
T2R4 [1]
  IC50: 85 µM
T2R4 [1]; T2R4-expressing HEK 293T cells
  blocking of quinine-dependent calcium release: less calcium mobilization; also recorded: most effective blocker; also recorded: suppressed quinine-dependent calcium release
T2R14
  IC50: ~100 µM and 118 µM
  blocking of diphenhydramine-dependent T2R14 activation: effective in blocking

## NCCCC[C@@H](C(=O)O)N(CC(=O)O)CC(=O)O [BCML, Nα,Nα-bis(carboxymethyl)-I-lysine]
[3]
  suppression of quinine bitterness intensity (e-tongue): most decrease
T2R4 [4]
  IC50: 0.059 µM
